Source: patent US20180085385A1, “GLUCOSE-SENSITIVE CELL PROTECTING AGENT” (THE UNIVERSITY OF TOKYO, priority 2015, published 2018)

Assays:
[1] = system: Gne/Mnk M712T homozygous mutant mouse; settings: mutant mice otherwise did not survive beyond age 3 after birth; cited from earlier work
[2] = system: renal proximal tubule epithelial cells derived from type II diabetes patients (D-RPTEC); test: Histone O-GlcNAc modification level in D-RPTEC by immunofluorescence staining; format: cell-based, human; settings: D-RPTEC cultured 96 hr under high glucose (25 mM glucose)
Experimental: Normal human renal proximal tubule epithelial cells and RPTEC derived from type II diabetes patients (D-RPTEC) were purchased from Lonza. RPTEC and D-RPTEC maintained with REGM™ Renal Epithelial Cell proliferation Medium Bullet Kit (Lonza) were each seeded in a 4-well dish at 1×10^4 cells per 1 well, and cultured for 4 days in a control medium or high glucose medium (adjusted to final concentration of 25 mM with 2.5 M glucose solution).
The cultured cells were fixed with 4% para-formaldehyde for 20 min and, after a permeabilization treatment with 0.2% TritonX-100-PBS solution, treated overnight with a blocking solution [PBS(−) containing 5% bovine serum-derived albumin (BSA), 0.1% Tween20, 0.2% TritonX-100] at 4° C. Then, the cells were reacted with anti-histone O-GlcNAc antibody (20B2) diluted with 5% BSA-PBS(−)-0.1% Tween20 at 4° C. overnight, reacted with secondary antibody diluted with PBS(−) at room temperature for 1 hr. The nucleus was stained with 1 μg/ml DAPI (Dojindo) at room temperature for 20 min, mounted in mountant (VECTASHIELD), and slides were prepared. Observation was performed with an integrated confocal laser microscope (FV10i, OLYMPUS). After obtaining images, the number of O-GlcNAc signals in the nucleus was measured by image analysis software Cell Profiler (www.cellprofiler.org), and statistical processing was performed by Wilcoxon rank-sum test. […]

human iPS cells = test: Orexin cell induction from human iPS cells (SDIA differentiation culture, Hcrt RT-PCR); format: cell-based; settings: for orexin cell induction activity (Hcrt expression): 8, 40, 200 nM, 1 μM and 5 μM instead of 1.0 mM ManNAc, compared to ManNAc
Experimental: Human iPS cell line 201B7 (HSP0001) was obtained from BioResource Center, RIKEN, Japan via National BioResource project (MEXT, Japan). Human iPS cells were maintained on a feeder layer of mitomycin C-treated STO/Neo resistant/LIF(SNL) feeder cells in primates ES medium (ReproCELL) supplemented with 5 ng/mL recombinant human bFGF (Wako). For differentiation induction into nerve by SDIA and BMP4 system, human iPS cells were cocultured with PA6 for 20 days. 5 nM BMP4 was supplemented from day 7. From the start of the differentiation culture (day 0), ManNAc was added to a neuronal differentiation medium to 1.0 mM, and the medium was exchanged on days 7, 10 and 14 of differentiation culture. In addition, 5 nM recombinant human BMP4 (Wako) was added from day 7 of the differentiation culture. On day 14 of the differentiation culture, EX-527 (SIGMA-ALDRICH) was added to neuronal differentiation medium to 50 nM, or BADGP (SIGMA-ALDRICH) was added to neuronal differentiation medium to 5 mM, and the cells were harvested on day 20 of the differentiation culture and subjected to RT-PCR.
(§1) Total RNA was extracted from the harvested cells by using RNeasy plus Mini Kit (QIAGEN). Then, using SuperScript III First Strand Synthesis System (Invitrogen), a reverse transcription reaction was performed in a reaction mixture containing total RNA (1 μg) and Oligo (dT), whereby cDNA was synthesized.
(§2) PCR reaction was performed on a 10 μl scale, 1 U LA-Tag DNA Polymerase (Takara) was added to 0.5 μl of cDNA, 5 μl of 2×GC Buffer I, 200 μM of each dNTP, 1.5 mM MgCl2 and final concentration 0.2 μM of each primer and, after heat denaturation at 95° C. for 3 min, and PCR was performed under the conditions of (95° C. 30 sec, 55° C. 30 sec, 72° C. 30 sec)×35 cycles (20 cycles for Actb). The primers used are shown below.
(§3) Each PCR product was electrophoresed on 2% agarose gel and stained with ethidium bromide, and the bands were observed by UV irradiation.
According to the method described in Reference Example 1 except that ManNAc, ManNAcF, 5S-ManNAc, 5S-ManNAcF, ManNCOOMe or ManNCOOEt (8, 40, 200 nM, 1 μM and 5 μM, respectively) was added instead of 1.0 mM ManNAc, orexin cells were induced from human iPS cells. The expression of orexin gene (Hcrt) in the cells induced under the various conditions was examined.

[3] = system: orexin nerve cells differentiated from human iPS cells; test: Protection or recovery of orexin nerve cells under high glucose by various ManNAc derivatives (Example 3); format: cell-based; settings: for recovery activity of orexin production (Hcrt expression intensity): 12-day course: high glucose 25 mM from day 0, compound 1 μM added from +day 8, harvested +day 12
Experimental: as §1, §2, §3
The orexin nerve cells were cultured in a neuronal differentiation medium (G-MEM+10% KSR (KnockOut Serum Replacement, Invitrogen)) for 8 days or 12 days, and maintained in vitro. In this case, the glucose concentration of the medium was set to a high glucose concentration (25 mM), ManNAc or various ManNAc derivatives (each 1 μM) were added, and the cells were cultured. In the 8-day culture course, glucose and ManNAc or various ManNAc derivatives were added to the medium from the start of the culture (+day 0), the cells were harvested on +day 8 the orexin expression was analyzed. As a control, orexin nerve cells cultured at low glucose concentration (5 mM) were prepared. In the 12-day culture course, high glucose was added from the start of the culture (+day 0), ManNAc or various ManNAc derivatives were added to the medium from +day 8 from the start of the culture, the cells were harvested on +day 12, and the orexin expression was analyzed. As a control, orexin nerve cells cultured at low glucose concentration (5 mM) from +day 8 from the start of the culture were prepared. According to the expression analysis by the RT-PCR method described in Reference Example 1, the expression of Hcrt gene was examined. Based on the expression of Hcrt gene in orexin nerve cells at the start of the culture, expression of Hcrt gene in orexin nerve cells after culture with the addition of ManNAc or various ManNAc derivatives under high glucose conditions is shown by expression intensity (FIG. 3).

[4] = system: orexin nerve cells in the brain of diabetic model mice (db/db mouse); test: Protection of nerve cells from disappearance at individual level, high fat feed db/db mouse, in situ hybridization; format: in vivo; settings: high fat feed 6 to 8 weeks of age, 5 μg/μl ManNAc containing drinking water
Experimental: To confirm effectiveness of ManNAc for nerve cell protection at an individual level, the number of orexin nerve cells and orexin expression were examined using genetically obese mouse (db/db mouse, hetero mouse as control, all male) (each group n=6). The breeding conditions of each group (6-8 weeks old) are as described below. […]
high fat feed+drinking water group high fat feed+5 μg/μl ManNAc containing drinking water group normal food+drinking water group normal food+5 μg/μl ManNAc containing drinking water group
Three individual mice from each group mentioned above were subjected to Nembutal anesthesia, and perfusion was fixed with formamide fixative (Genostaff). The brain was taken out, embedded in paraffin, and sections with 6 μm thickness in the sagittal direction were prepared. […]
was cloned into […] vector (Promega), and using DIG RNA Labeling Mix (Roche) and the plasmid as a template, digoxigenin-labeled RNA probe was prepared. […] The cells expressing orexin gene were counted, and the mean of 3 individuals and standard error were determined.

[5] = system: orexin nerve cells differentiated from human iPS cells; test: Disappearance of orexin nerve cells under high glucose concentration and protection or recovery from disappearance (Example 1); format: cell-based; settings: for recovery of orexin nerve cells (expression of orexin): culture under high glucose concentration extended for 2 or 4 more days, compound then added to the medium; for disappearance of the orexin nerve cells (orexin (Hcrt) expression): high glucose concentration (25 mM), 8 days, addition concentration 10 μM ManNAc, 1 μM ManNAcF
Experimental: as §1, §2, §3
The orexin nerve cells were cultured in a neuronal differentiation medium (G-MEM+10% KSR (Knockout Serum Replacement, Invitrogen)) for 8 days, and maintained in vitro. In this case, the cells were divided based on the glucose concentration in the medium into two groups having low glucose concentration (5 mM) and high glucose concentration (25 mM) and cultured.

Row | SMILES | recovery activity of orexin production (Hcrt expression intensity) [3] | recovery of orexin nerve cells (expression of orexin) [5] | orexin cell induction activity (Hcrt expression) (human iPS cells) | other results
1 | CC(=O)N[C@@H]1C(O)O[C@H](CO)[C@@H](O)[C@@H]1O (stereo partly drawn) [ManNAc, N-acetyl-D-mannosamine] | higher | expression of orexin was observed | – | survival of Gne/Mnk M712T homozygous mutant mice [1]: rescued the mice; histone O-GlcNAc modification level [2]: increase in the histone O-GlcNAc modification level was observed; expression of orexin gene (Hcrt) (human iPS cells; 1.0 mM ManNAc from day 0, EX-527 50 nM or BADGP 5 mM from day 14, harvested day 20): expression of Hcrt was observed; decrease in the number of orexin nerve cells and the orexin gene expression [4]: suppressed; disappearance of the orexin nerve cells (orexin (Hcrt) expression) [5]: disappearance of the orexin nerve cells could be avoided
2 | NC(=O)C1CCCc2c1[nH]c1ccc(Cl)cc21 (stereo not shown) [EX-527, reference compound] | – | completely ineffective | – | –
3 | CC(=O)N[C@H]1[C@@H](OCc2ccccc2)O[C@H](CO)[C@H](O)[C@@H]1O [BADGP, reference compound] | – | completely ineffective | – | –
4 | CCOC(=O)NC1C(O)OC(CO)[C@@H](O)C1O (stereo partly shown) [ManNCOOEt] | low activity | – | higher orexin cell induction activity as compared to ManNAc | –
5 | O=C(CF)NC1C(O)OC(CO)[C@@H](O)[C@@H]1O (stereo partly shown) [ManNAcF] | highest activity | expression of orexin was observed | higher orexin cell induction activity as compared to ManNAc | disappearance of the orexin nerve cells (orexin (Hcrt) expression) [5]: disappearance of the orexin nerve cells could be avoided
6 | CC(=O)NC1C(O)SC(CO)[C@@H](O)[C@@H]1O (stereo partly drawn) [5S-ManNAc] | low activity | – | – | –
7 | COC(=O)NC1C(O)OC(CO)[C@@H](O)C1O (stereo partly shown) [ManNCOOMe] | low activity | – | higher orexin cell induction activity as compared to ManNAc | maintenance of orexin production (Hcrt expression intensity) ([3]; 8-day course: high glucose 25 mM and compound 1 μM from +day 0, harvested +day 8): orexin production was maintained except for ManNCOOMe
